Counter-ions that a name gives are not always drawn. Activity calls are given as the source filed them.
Assays:
[1] = molecular target: Voltage-gated inwardly rectifying potassium channel KCNH2 (Homo sapiens, UniProt Q12809); details: Potency;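 further: confirmatory quantitative high-throughput screen measuring inhibition of hERG channel activity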
Kallikrein-7 = Kallikrein-7 (Homo sapiens, UniProt P49862); test: Fluorescence Intensity-based biochemical primary high throughput dose response assay to identify activators of kallikrein-7 (K7) zymogen.
[2] = THP-1 cell cytotoxicity, dose response, cytotoxicity control for non-replicating M. tuberculosis project (AID 489025); format: functional
[3] = HepG2 cell cytotoxicity, dose response, cytotoxicity control for non-replicating M. tuberculosis project (AID 489018); format: functional; details: Mycobacterium tuberculosis
[4] = Vero E6 cell cytotoxicity, dose response, cytotoxicity control for non-replicating M. tuberculosis project, secondary assay (AID 492998); format: functional, VeroE6; details: Vero C1008
[5] = molecular target: T1, Short transient receptor potential channel 4 (Mus musculus, UniProt Q9QUQ5); test: mouse TRPC4 channel activators, dose response, cell-based, HEK293 TRPC4/mu-opioid, Fluo-4 calcium (AID 434937); format: functional
T1 sequence (Q9QUQ5 whole entry): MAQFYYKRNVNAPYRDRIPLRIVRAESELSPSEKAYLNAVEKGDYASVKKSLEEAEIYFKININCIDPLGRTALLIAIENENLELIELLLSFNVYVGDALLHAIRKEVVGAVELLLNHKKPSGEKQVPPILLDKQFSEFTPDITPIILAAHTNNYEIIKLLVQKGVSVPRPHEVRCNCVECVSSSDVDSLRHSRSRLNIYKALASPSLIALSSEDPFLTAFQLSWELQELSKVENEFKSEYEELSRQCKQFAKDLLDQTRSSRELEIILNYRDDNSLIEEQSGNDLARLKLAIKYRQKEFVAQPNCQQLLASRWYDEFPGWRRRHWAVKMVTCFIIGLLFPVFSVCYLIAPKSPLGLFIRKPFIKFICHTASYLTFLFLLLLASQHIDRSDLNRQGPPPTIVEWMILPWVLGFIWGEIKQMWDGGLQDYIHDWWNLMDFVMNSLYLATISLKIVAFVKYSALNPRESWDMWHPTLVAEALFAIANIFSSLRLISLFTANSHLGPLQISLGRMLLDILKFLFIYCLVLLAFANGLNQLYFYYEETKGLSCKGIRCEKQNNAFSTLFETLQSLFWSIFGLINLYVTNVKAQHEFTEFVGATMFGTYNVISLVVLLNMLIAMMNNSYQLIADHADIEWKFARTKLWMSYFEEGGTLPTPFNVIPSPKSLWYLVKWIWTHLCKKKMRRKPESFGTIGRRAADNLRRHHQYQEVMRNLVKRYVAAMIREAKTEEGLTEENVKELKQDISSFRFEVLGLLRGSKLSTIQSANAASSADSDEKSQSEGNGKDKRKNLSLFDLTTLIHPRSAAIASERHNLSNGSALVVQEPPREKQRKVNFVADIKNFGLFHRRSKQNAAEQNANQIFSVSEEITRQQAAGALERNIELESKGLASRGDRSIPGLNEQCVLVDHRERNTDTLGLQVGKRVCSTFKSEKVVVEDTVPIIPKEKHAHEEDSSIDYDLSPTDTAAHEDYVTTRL

cells = format: functional
HEK293 = test: inhibitors of LMP1-driven NF-kB reporter, dose response, cell-based, HEK293, luciferase, cherry-pick (AID 588343); format: functional; details: Homo sapiens
Protein skinhead-1 = molecular target: T2, Protein skinhead-1 (Caenorhabditis elegans, UniProt P34707); format: functional
T2 sequence (P34707 whole entry): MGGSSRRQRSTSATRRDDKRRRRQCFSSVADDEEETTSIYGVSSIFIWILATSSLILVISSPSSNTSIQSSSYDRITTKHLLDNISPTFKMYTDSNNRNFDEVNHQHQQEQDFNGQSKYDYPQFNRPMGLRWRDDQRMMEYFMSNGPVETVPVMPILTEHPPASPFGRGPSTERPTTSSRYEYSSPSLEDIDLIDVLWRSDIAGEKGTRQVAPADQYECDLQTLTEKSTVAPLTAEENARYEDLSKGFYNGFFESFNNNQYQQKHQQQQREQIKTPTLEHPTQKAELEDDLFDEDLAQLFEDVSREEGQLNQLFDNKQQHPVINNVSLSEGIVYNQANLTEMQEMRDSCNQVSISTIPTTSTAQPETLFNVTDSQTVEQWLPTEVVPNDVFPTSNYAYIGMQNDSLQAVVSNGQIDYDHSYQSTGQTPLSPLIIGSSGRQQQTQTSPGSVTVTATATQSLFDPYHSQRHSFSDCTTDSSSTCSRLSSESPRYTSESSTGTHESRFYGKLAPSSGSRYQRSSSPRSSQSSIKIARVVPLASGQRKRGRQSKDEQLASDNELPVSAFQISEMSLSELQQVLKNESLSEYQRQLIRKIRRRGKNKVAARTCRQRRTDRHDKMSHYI

Paired box protein Pax-8 = Paired box protein Pax-8 (Homo sapiens, UniProt Q06710); test: inhibitors of PAX8-driven TPO luciferase reporter, dose response, RMG-I cells, cherry-pick (AID 687027); format: functional, cell-based;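 further: luciferase reporter driven by Pax8 target thyroperoxidase promoter measured by SteadyGlo luminescence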
[6] = non-specific cell cytotoxicity, dose response, cytotoxicity control for PAX8 inhibitor project, plate reader, dry powder samples (AID 743021); format: functional, cell-based
[7] = P. falciparum 3D7-ScDHODH growth inhibitors, dose response, SYBR Green, dry powder samples (AID 1159570); format: functional, cell-based;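 further: parasite growth measured after 72 hours of compound exposure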
[8] = HepG2 cell cytotoxicity, dose response, cytotoxicity control, plate reader, dry powder samples (AID 1159569); format: functional, cell-based;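 further: inhibitor potency with signal falling toward the positive control level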
[9] = P. falciparum Dd2 growth inhibitors, dose response, SYBR Green, cherry-picked samples (AID 1159567); format: functional, cell-based
[10] = P. falciparum Dd2 growth inhibitors, dose response, SYBR Green, dry powder samples (AID 1159566); format: functional, cell-based;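 further: potency for growth inhibition with lower SYBR green DNA signal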
[11] = P. falciparum ATP4 D1247Y mutant growth inhibitors, dose response, NITD609-resistant line, SYBR Green, dry powder (AID 1159571); format: functional, cell-based;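 further: parasites synchronized at ring stage by sorbitol before testing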
[12] = cytotoxicity in HEK-293T cells, dose response, cytotoxicity control for TCR NF-kB inhibitor project, luminescence, T-cell screen hits (AID 489026); format: functional, cell-based;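 further: cells exposed to compound about 14 hours before the viability readout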

Voltage-gated inwardly rectifying potassium channel KCNH2, sequence (Q12809 whole entry): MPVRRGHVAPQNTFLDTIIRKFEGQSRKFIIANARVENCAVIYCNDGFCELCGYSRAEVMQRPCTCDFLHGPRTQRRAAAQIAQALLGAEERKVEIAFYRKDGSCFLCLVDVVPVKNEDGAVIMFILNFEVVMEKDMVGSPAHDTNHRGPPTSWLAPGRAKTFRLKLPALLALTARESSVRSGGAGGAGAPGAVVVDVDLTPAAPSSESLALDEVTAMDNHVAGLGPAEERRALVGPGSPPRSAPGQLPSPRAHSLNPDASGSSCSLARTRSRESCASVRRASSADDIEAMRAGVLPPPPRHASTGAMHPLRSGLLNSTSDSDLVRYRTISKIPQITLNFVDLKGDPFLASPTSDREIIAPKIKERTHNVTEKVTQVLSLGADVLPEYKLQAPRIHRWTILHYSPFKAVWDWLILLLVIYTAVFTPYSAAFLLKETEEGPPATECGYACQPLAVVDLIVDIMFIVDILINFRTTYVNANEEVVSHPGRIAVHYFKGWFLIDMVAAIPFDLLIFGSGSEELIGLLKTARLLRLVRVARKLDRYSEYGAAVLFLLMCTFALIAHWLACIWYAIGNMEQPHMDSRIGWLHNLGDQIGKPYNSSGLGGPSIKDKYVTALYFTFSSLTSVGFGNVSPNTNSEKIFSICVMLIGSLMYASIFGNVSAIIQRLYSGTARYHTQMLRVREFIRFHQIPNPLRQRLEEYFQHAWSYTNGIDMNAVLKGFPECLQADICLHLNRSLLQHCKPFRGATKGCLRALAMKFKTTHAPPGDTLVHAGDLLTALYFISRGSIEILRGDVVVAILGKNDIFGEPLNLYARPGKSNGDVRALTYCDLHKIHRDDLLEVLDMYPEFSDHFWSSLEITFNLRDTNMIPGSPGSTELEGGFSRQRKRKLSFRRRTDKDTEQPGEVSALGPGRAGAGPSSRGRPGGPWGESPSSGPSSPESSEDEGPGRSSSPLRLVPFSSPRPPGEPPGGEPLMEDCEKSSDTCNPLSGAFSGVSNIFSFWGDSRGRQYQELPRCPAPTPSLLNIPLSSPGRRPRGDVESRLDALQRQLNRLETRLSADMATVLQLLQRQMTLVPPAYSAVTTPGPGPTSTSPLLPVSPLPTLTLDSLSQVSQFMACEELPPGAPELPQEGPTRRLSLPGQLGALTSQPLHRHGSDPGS
Kallikrein-7, sequence (P49862 whole entry): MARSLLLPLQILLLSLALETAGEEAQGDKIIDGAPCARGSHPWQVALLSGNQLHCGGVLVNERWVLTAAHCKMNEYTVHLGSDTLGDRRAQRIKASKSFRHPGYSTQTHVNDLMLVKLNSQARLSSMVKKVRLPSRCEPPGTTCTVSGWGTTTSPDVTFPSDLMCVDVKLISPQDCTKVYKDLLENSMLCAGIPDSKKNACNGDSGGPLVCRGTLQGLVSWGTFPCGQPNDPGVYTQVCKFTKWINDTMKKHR
Paired box protein Pax-8, sequence (Q06710 whole entry): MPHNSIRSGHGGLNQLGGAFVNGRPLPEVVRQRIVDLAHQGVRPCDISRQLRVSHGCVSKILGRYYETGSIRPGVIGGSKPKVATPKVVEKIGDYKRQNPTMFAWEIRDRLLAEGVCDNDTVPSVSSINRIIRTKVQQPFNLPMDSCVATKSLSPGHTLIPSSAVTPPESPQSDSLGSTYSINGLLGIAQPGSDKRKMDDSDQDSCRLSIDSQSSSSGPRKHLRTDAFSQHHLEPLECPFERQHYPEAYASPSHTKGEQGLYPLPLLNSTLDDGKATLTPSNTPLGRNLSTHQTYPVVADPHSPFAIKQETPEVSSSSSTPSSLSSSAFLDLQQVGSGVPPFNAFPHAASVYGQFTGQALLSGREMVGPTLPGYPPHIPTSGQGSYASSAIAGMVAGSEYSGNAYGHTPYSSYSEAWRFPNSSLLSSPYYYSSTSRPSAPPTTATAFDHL

In the case of `CN(C)CCC(c1ccccc1)c1ccccn1` (centres undefined) [PHENIRAMINE MALEATE], the AC50 [1] is reported as 15.8 µM (inconclusive).
With `Cc1c(C2(O)CCCCC2)[nH]c2cnccc12` the EC50 (Kallikrein-7) was > 69.5 µM (inactive).
In the case of `Cc1ccc(-n2cc(CNCCc3nc(C)c[nH]3)c(-c3ccc(F)cc3)n2)cc1`, the CC50 [2] is reported as 24.1 µM (active), the CC50 [3] is reported as 16.7 µM (active) and the CC50 [4] is reported as 17.4 µM (active). The EC50 [5] was 6.68 µM (active) and the IC50 (cells) was 11.5 µM (active).
In the case of `Oc1nc(-c2ccccc2Cl)c2cc(F)ccc2n1`, the EC50 (Kallikrein-7) is reported as > 69.5 µM (inactive).
In the case of `O=c1cc(-c2ccccc2)oc2ccc3ccccc3c12` [BETA-NAPHTHOFLAVONE], the AC50 (HEK293) is reported as 0.646 µM (active), the IC50 (Protein skinhead-1) is reported as > 100 µM (inactive) and the AC50 (Paired box protein Pax-8) is reported as 5.9 µM (active). For the same compound, the AC50 [6] was 29.2 µM (active).
For `COc1ccc(NC(=O)/C=C/c2ccc(Cl)cc2)cc1`, the AC50 [1] was 25.1 µM (inconclusive).
In the case of `COc1ccc(-c2ccc3c(c2)[C@H]2[C@H](CCN2C(=O)C2CCCC2)[C@H](CO)N3C)cc1`, the AC50 [7] is reported as 2.27 µM (active), the AC50 [8] is reported as 16.1 µM (active) and the AC50 [9] is reported as 1.87 µM (active). The AC50 [10] was 1.42 µM (active) and the AC50 [11] was 1.97 µM (active).
For `Cc1ccc(O)c(NC(=O)c2cc(-c3ccccc3)on2)c1`, the IC50 [12] was > 80 µM (inactive).

Source: ChEMBL document CHEMBL1201862, “PubChem BioAssay data set” (2004)
